# Test system: A549 cells
# Assay: Flow cytometry annexin V / propidium iodide in A549 cells
# Type: cell-based, human
# Details: 15 μM gefitinib
compound,measurement,value
COc1cc2ncnc(Nc3ccc(F)c(Cl)c3)c2cc1OCCCN1CCOCC1 [gefitinib],mode of cytotoxicity (annexin V vs propidium iodide),early apoptosis
